Consider one compound from patent US8062995B2, “Dioxazine-substituted arylamides” (Bayer CropScience AG, priority 2005, dated 2011).

Data set [1] in a line: logP determination by HPLC (reversed-phase C18), EEC Directive 79/831 Annex V.A8. Type of data set: physicochemical. The following applies: HPLC reversed-phase C18, 43° C., acidic range pH 2.7.
Data set [2] concerns Myzus persicae. The experiment in a line: Myzus persicae test (ingestion of active compound preparation). It is filed as in vivo. The method, then:
(§1) Myzus persicae Test Solvents: 1% of N-methylpyrrolidone (NMP) • 1% of diacetone alcohol Dye: brilliant sulphoflavin for staining the water To produce a suitable preparation of active compound, the active compound is mixed with the stated amounts of solvents and the concentrate is diluted with stained water to the desired concentration. The Myzus persicae are provided with an active compound preparation of the desired concentration for ingestion. After the desired period of time, the activity in % is determined. 100% means that all aphids have been killed; 0% means that none of the aphids have been killed.

For data set [3], the system named is Aedes aegypti. Nature of the data set: Aedes aegypti test (larvae). Type of data set: in vivo. The method, then: as §1, with “Aedes aegypti Test” for “Myzus persicae Test”, “The larvae (Aedes aegypti)” for “The Myzus persicae”, “are treated” for “are provided”, “desired concentration.” for “desired concentration for ingestion.”, “all of the larvae” for “all aphids”, “the larvae” for “the aphids”

In data set [4] the test system is Diabrotica undecimpunctata. Nature of the data set: Diabrotica undecimpunctata (DIABUN) test (eggs). It is filed as in vivo. The method, then:
as §1, with “Diabrotica undecimpunctata (DIABUN)” for “Myzus persicae Test”, “eggs (Diabrotica undecimpunctata)” for “Myzus persicae”, “treated” for “provided”, “concentration.” for “concentration for ingestion.”, “animals” for “aphids”

In data set [5] the test system is Heliothis virescens. The experiment in a line: Heliothis virescens test (eggs). It is filed as in vivo. The method, then: as §1, with “Heliothis virescens” for “Myzus persicae Test”, “eggs (Heliothis virescens)” for “Myzus persicae”, “treated” for “provided”, “concentration.” for “concentration for ingestion.”, “animals” for “aphids”
Data set [6] concerns larvae of the mustard beetle (Phaedon cochleariae). Nature of the data set: Phaedon test (sprayed Chinese cabbage discs). Type of data set: in vivo. The essentials: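 Compound formulated in acetone/DMF with alkylaryl polyglycol ether emulsifier, diluted in emulsifier-containing water and sprayed onto Chinese cabbage (Brassica pekinensis) leaf discs. After drying, discs infested with Phaedon cochleariae larvae; % kill scored after set time (100% = all larvae dead, 0% = none).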

Data set [7] has as its system caterpillars of the army worm (Spodoptera frugiperda). The experiment in a line: Spodoptera frugiperda test (SPODFR spray treatment). Type of data set: in vivo. The essentials:
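Compound formulated in acetone/DMF with alkylaryl polyglycol ether emulsifier, diluted in emulsifier-containing water and sprayed on maize leaf discs; after drying, discs infested with Spodoptera frugiperda caterpillars. Mortality (%) scored after a set period, 100% meaning all caterpillars killed.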

Data set [8] has as its system Spodoptera frugiperda larvae. The experiment in a line: Spodoptera frugiperda test (treatment by watering). Type of data set: in vivo. The essentials: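 Compound formulated in dimethylformamide with alkylaryl polyglycol ether emulsifier and diluted with water to the desired concentration. Maize plants are watered with the preparation, then infested with Spodoptera frugiperda larvae. After the set period, % larval kill is scored (100% = all killed, 0% = none).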

For data set [9], the system named is caterpillars of the cotton bollworm (Heliothis armigera). The experiment in a line: Heliothis armigera test (leaf dip). Type of data set: in vivo. The essentials:
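Compound was formulated in dimethylformamide with alkylaryl polyglycol ether emulsifier and diluted in emulsifier-containing water. Soya bean leaves were dipped in the preparation and populated with Heliothis armigera caterpillars while still moist. Kill (%) was scored after the desired period.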

One may read the logP as the decadic logarithm of the partition coefficient of the neutral form, usually between octanol and water. High values mean higher lipophilicity, low ones lower lipophilicity. In data set [1], `O=C(Nc1c(Cl)cc(Cl)cc1C1=NOCCO1)c1cc(Br)nn1-c1ncccc1Cl` [Example I-1-8] came in with a logP of 3.09. Also, the “activity in the Myzus persicae test (in words)” value in data set [2] is reported as “good activity”. The “Kill rate after 6-7d in %” value in data set [2] (30 ppm, 6-7 d, ingestion) amounted to 100%; in data set [5] (100 ppm, 6-7 d, eggs), 100%. In addition, the “activity in the Aedes aegypti test (in words)” value in [3] is “good activity”. For the same compound, the “Kill rate after 2-4d in %” value in [3] (30 ppm, 2-4 d, larvae) was found to be 100%. Further, in data set [4], the “activity in the Diabrotica undecimpunctata test (in words)” value is reported as “good activity”. Further, in [4] (300 ppm, 2-5 d, eggs), the “Kill rate after 2-5d in %” value stood at 100%. Besides, in data set [5], the “activity in the Heliothis virescens test (in words)” value is on record as “good activity”. The “activity in the Phaedon test (in words)” value in data set [6] is on record as “good activity”. For the same compound, the “Kill rate after 7d in %” value in data set [6] (100 g/ha, 7 d) amounted to 100%; in data set [7] (100 g/ha, 7 d, spray treatment), 100%; in [9] (20 ppm, 7 d) it was 100%. Further, the “activity in the Spodoptera frugiperda test, spray treatment (in words)” value in data set [7] is reported as “good activity”. Besides, the “activity in the Spodoptera frugiperda test, watering (in words)” value in data set [8] is “good activity”. For the same compound, the “Kill rate after 14d in %” value in data set [8] (20 ppm, 14 d, treatment by watering) was 95%. Moreover, the “activity in the Heliothis armigera test (in words)” value in data set [9] is listed as “good activity”.
